Among the data in patent US8293780B1, “Anti-cancer agents based on 6-trifluoromethoxybenzimidazole derivatives and method of making” (U.S. Department of Energy, priority 2009, dated 2012) are CC50 values, retold here.

Where a name gives a salt, the structure may show the parent alone.

In this assay the test system is DU-145 cells (prostate carcinoma). Kind of assay: DU-145 cell growth inhibition, tetrazolium dye XTT viability endpoint. It counts as cell-based. To be noted: Homo sapiens, triplicate, five half-logarithmic dilutions, read-out: DU145 TC50. The method, then:
Cell Preparation: DU-145 cells (prostate carcinoma; catalog #HTB-81) were obtained from the ATCC and propagated in EMEM with Earles BSS supplemented with 10% FBS (fetal bovine serum), 2 mM L-glutamine, 100 U/mL penicillin, 100 μg/mL streptomycin, 1 mM sodium pyruvate, and 0.1 mM NEAA (Non-Essential Amino Acids). DU-145 cells were passaged in T-75 flasks prior to use in the assay. On the day preceding the assay, the cells were split 1:2 to assure they were in an exponential growth phase at the time of infection. Total cell and viability quantification was performed using a hemocytometer and Trypan Blue dye exclusion. Cell viability was greater than 95% for the cells to be utilized in the assay. The cells were re-suspended at 1×10^5 cells per mL in tissue culture medium and added to the drug-containing microtiter plates in a volume of 100 μL.
Plate Format: Each plate contained cell control wells (cells only), experimental compound evaluation wells (cells plus compound only), and test compound colorimetric control wells (compound only). Samples were initially tested in triplicate for inhibition of DU-145 cell growth at 10 μM concentration for each compound with a single colorimetric control well. Secondary assay tested the compounds in triplicate using five half-logarithmic dilutions.
Tetrazolium Dye XTT Viability Endpoint: Following incubation at 37° C. in a 5% CO2 incubator, the test plates were stained with the tetrazolium dye XTT (2,3-bis(2-methoxy-4-nitro-5-sulfophenyl)-5-[(phenylamino)carbonyl]-2H-tetrazolium hydroxide). XTT was metabolized by the mitochondrial enzymes of metabolically active cells to a soluble formazan product, allowing rapid quantitative analysis of the inhibition of DU-145 […] by anti-prostate cancer test substances. XTT solution was prepared daily as a stock of 1 mg/mL in RPMI1640. Phenazine methosulfate (PMS) solution was prepared at 0.15 mg/mL in PBS (Phosphate—Buffered Saline) and stored in the dark at −20° C. XTT/PMS stock was prepared immediately before use by adding 40 μL of PMS per ml of XTT solution. Fifty microliters of XTT/PMS was added to each well of the plate and the plate was reincubated for 4 hours at 37° C. Plates were sealed with adhesive plate sealers and shaken gently or inverted several times to mix the soluble formazan product and the plate was read spectrophotometrically at 450/650 nm with a Molecular Devices Vmax plate reader.
IC50 represents the concentration of a drug that is required for 50% inhibition in vitro.
On the technique in general: Tetrazolium dyes change colour on reduction, which living cells bring about.
Consider `Cc1nc2ccc(OC(F)(F)F)cc2[nH]1`, for which the CC50 was over 10 µM.

Turning to `CCc1nc2ccc(OC(F)(F)F)cc2[nH]1`, the CC50 is over 10 µM.

As for `FC(F)(F)Oc1ccc2nc(-c3ccccc3)[nH]c2c1`, the CC50 was determined as 0.9 µM.

As to `FC(F)(F)Oc1ccc2nc(-c3ccco3)[nH]c2c1`, the CC50 worked out at 1.8 µM.

Regarding `FC(F)(F)Oc1ccc2nc(-c3cccnc3)[nH]c2c1`, the CC50 was found to be 4.6 µM.

For the compound `CC/C(=C(\c1ccccc1)c1ccc(OCCN(C)C)cc1)c1ccccc1` [Tamoxifen Citrate, reference compound], the CC50 stood at 20 µM.
